Assay results from ChEMBL document CHEMBL5032520, “Low-Valent Calix[4]arene Glycoconjugates Based on Hydroxamic Acid Bearing Linkers as Potent Inhibitors in a Model of Ebola Virus Cis-Infection and HCMV-gB-Recombinant Glycoprotein Interaction with MDDC Cells by Blocking DC-SIGN” (J Med Chem, 2021).

Legend:
Human betaherpesvirus 5 [1] = assay: Potency index, ratio of Mannan IC50 to test compound IC50 for antiviral activity against HCMV infected in U-937 cells expressed in DC-SIGN using flow cytometry; assay type: functional
Human betaherpesvirus 5 [2] = assay: Antiviral activity against HCMV infected in U-937 cells expressed in DC-SIGN using flow cytometry; assay type: functional, organism-based; conditions: Human betaherpesvirus 5, U-937

SMILES | Ratio IC50 (Human betaherpesvirus 5 [1]) | IC50 (Human betaherpesvirus 5 [2])
C[C@@H]1O[C@@H](OCc2cn(CCCCCC(=O)N(O)Cc3cn(CCCOc4c5cc(C(C)(C)C)cc4Cc4cc(C(C)(C)C)cc(c4OCCCn4cc(CN(O)C(=O)CCCCCn6cc(CO[C@@H]7O[C@@H](C)[C@@H](O)[C@@H](O)[C@@H]7O)nn6)nn4)Cc4cc(C(C)(C)C)cc(c4OCCCn4cc(CN(O)C(=O)CCCCCn6cc(CO[C@@H]7O[C@@H](C)[C@@H](O)[C@@H](O)[C@@H]7O)nn6)nn4)Cc4cc(C(C)(C)C)cc(c4OCCCn4cc(CN(O)C(=O)CCCCCn6cc(CO[C@@H]7O[C@@H](C)[C@@H](O)[C@@H](O)[C@@H]7O)nn6)nn4)C5)nn3)nn2)[C@@H](O)[C@H](O)[C@@H]1O | 31 | 0.5 µg/mL
CC(C)(C)c1cc2c(OCCCn3cc(CN(O)C(=O)CCCCCn4cc(CO[C@H]5O[C@H](CO)[C@@H](O)[C@H](O)[C@@H]5O)nn4)nn3)c(c1)Cc1cc(C(C)(C)C)cc(c1OCCCn1cc(CN(O)C(=O)CCCCCn3cc(CO[C@H]4O[C@H](CO)[C@@H](O)[C@H](O)[C@@H]4O)nn3)nn1)Cc1cc(C(C)(C)C)cc(c1OCCCn1cc(CN(O)C(=O)CCCCCn3cc(CO[C@H]4O[C@H](CO)[C@@H](O)[C@H](O)[C@@H]4O)nn3)nn1)Cc1cc(C(C)(C)C)cc(c1OCCCn1cc(CN(O)C(=O)CCCCCn3cc(CO[C@H]4O[C@H](CO)[C@@H](O)[C@H](O)[C@@H]4O)nn3)nn1)C2 | 34 | 0.45 µg/mL
COC(=O)CNC(=O)CN(Cc1cn(CCCOc2c3cc(C(C)(C)C)cc2Sc2cc(C(C)(C)C)cc(c2OCCCn2cc(CN(CC(=O)NCC(=O)OC)C(=O)CCCCCn4cc(CO[C@@H]5O[C@@H](C)[C@@H](O)[C@@H](O)[C@@H]5O)nn4)nn2)Sc2cc(C(C)(C)C)cc(c2OCCCn2cc(CN(CC(=O)NCC(=O)OC)C(=O)CCCCCn4cc(CO[C@@H]5O[C@@H](C)[C@@H](O)[C@@H](O)[C@@H]5O)nn4)nn2)Sc2cc(C(C)(C)C)cc(c2OCCCn2cc(CN(CC(=O)NCC(=O)OC)C(=O)CCCCCn4cc(CO[C@@H]5O[C@@H](C)[C@@H](O)[C@@H](O)[C@@H]5O)nn4)nn2)S3)nn1)C(=O)CCCCCn1cc(CO[C@@H]2O[C@@H](C)[C@@H](O)[C@@H](O)[C@@H]2O)nn1 | 4.91 | 3.15 µg/mL
COC(=O)CNC(=O)CN(Cc1cn(CCCOc2c3cc(C(C)(C)C)cc2Cc2cc(C(C)(C)C)cc(c2OCCCn2cc(CN(CC(=O)NCC(=O)OC)C(=O)CCCCCn4cc(CO[C@@H]5O[C@@H](C)[C@@H](O)[C@@H](O)[C@@H]5O)nn4)nn2)Cc2cc(C(C)(C)C)cc(c2OCCCn2cc(CN(CC(=O)NCC(=O)OC)C(=O)CCCCCn4cc(CO[C@@H]5O[C@@H](C)[C@@H](O)[C@@H](O)[C@@H]5O)nn4)nn2)Cc2cc(C(C)(C)C)cc(c2OCCCn2cc(CN(CC(=O)NCC(=O)OC)C(=O)CCCCCn4cc(CO[C@@H]5O[C@@H](C)[C@@H](O)[C@@H](O)[C@@H]5O)nn4)nn2)C3)nn1)C(=O)CCCCCn1cc(CO[C@@H]2O[C@@H](C)[C@@H](O)[C@@H](O)[C@@H]2O)nn1 | 6.45 | 2.4 µg/mL
OC[C@H]1O[C@@H](O[C@H]2[C@H](O)[C@@H](O)[C@H](O[C@H]3[C@H](O)[C@H](O)[C@H](O[C@@H]4[C@H](O)[C@H](O)[C@H](O)O[C@@H]4CO)O[C@@H]3CO)O[C@@H]2CO)[C@@H](O)[C@@H](O)[C@@H]1O | – | 15.5 nM
